Paper PMC9721025, “Pharmacokinetic study of the main components of Tanreqing capsules and Tanreqing injections in beagles by liquid chromatography–tandem mass spectrometry” (Chinese Medicine, 2022)

What was measured:
[1] = Pharmacokinetics in beagles, single-dose regimen of TRQI (i.v.) or TRQC (oral), plasma LC-MS/MS; assay type: in vivo, beagle; conditions: beagle, dog, plasma; for AUC(0-t): read-out: AUC0–24 h; for Cmax / Tmax / half-life: mean of six beagles
Protocol: (§1) 100 μL plasma sample was drawn and transferred to 1.5 mL centrifuge tube prior to 300 μL protein precipitant (3:1 [v/v] methanol/acetonitrile, containing 0.1% formic acid and 100 ng/mL IS) was added, and then the sample was vortex-mixed for 3 min. The mixture was centrifuged at 20,000 ×g for 10 min, and 100 μL supernatant was transferred to the injection vial and analyzed directly by LC–MS/MS.
(§2) This study was carried out in six beagles (three males and three females, 9.0–12.0 kg each), that were purchased from Junda Pet Hospital (Shanghai, China). This experimental protocol was approved by the Experimental Animal Ethics Committee of the Naval Military Medical University (Shanghai, China).
The six healthy beagles were divided into two groups: beagles 1–3 were all male and were assigned to the first group, and beagles 4–6 were all females and assigned to the second group. The two-cycle, crossover study was designed with a 7-day wash out period. For the single-administration process, the dogs in the first group were injected intravenously with 0.5 mL/kg TRQI (one-third of the normal daily dose), and blood samples were collected at 0, 5, 10, 15, 20, 30, and 45 min and then at 1, 2, 4, 6, 8, 12, and 24 h (a total of 14 time points) after injection. For each blood sample, 1 mL of blood was collected from the forelimb vein in heparin-treated tubes. The dogs in the second group were orally administrated 0.09 g/kg TRQC (one-third of the normal daily dose, and blood samples were collected in the same manner at 0, 10, 20, and 40 min and then at 1, 1.5, 2, 2.5, 3, 4, 6, 8, 12, and 24 h (a total of 14 time points). All blood samples were centrifuged at 4000 × g for 5 min, and each supernatant was collected and aliquoted. After a 7-day wash out period, the dogs in each group were administrated the other Tanreqing formulation in a crossover design, and blood samples were collected and processed in the same way.
(§3) All data obtained were analyzed using Drug and Statistics (DAS) 2.0 software (Chinese Society of Pharmacology), and a non-compartment analysis was used to calculate plasma pharmacokinetic parameters. The principal components of TRQI and TRQC were compared with an analysis of variance (ANOVA) and/or a two-tailed student-t test.

[2] = Stability of analytes in dog plasma (QC samples); assay type: in vitro ADME
Protocol: The stock solutions of all analytes were further mixed and diluted with methanol/water (10:90, v/v) solution to prepare the working solutions. […] The QC samples were stored in a refrigerator at – 80 °C until retrieval (see Additional file 1). The stability, which includes short-term stability (6 h at room temperature), long-term stability (− 80 °C for 30 days in the refrigerator), and freeze–thaw stability (three cycles from − 80 °C to room temperature), were assessed using QC samples at three concentration levels in three replicates. […] Similarly, there were no obvious effects on the analysis results of the samples with respect to short-term stability or long-term storage.

[3] = Pharmacokinetics in beagles, multiple-dose regimen (once per day for 7 days) of TRQI or TRQC, plasma LC-MS/MS; assay type: in vivo; conditions: beagle, dog; for Cmax at 7 days / Tmax at 7 days / half-life at 7 days: mean
Protocol: as §1, §2
After the end of the single-dose experiment, the dogs in group one were given 0.5 mL/kg injection of TRQI once per day for 7 days following the wash out period, and the dogs in group two were given 0.09 g/kg TRQC once per day for 7 days. After the seventh administration, blood samples were collected at 0, 10, 20, and 40 min and then at 1, 1.5, 2, 2.5, 3, 4, 6, 8, 12, and 24 h (a total of 14 time points) and were processed as described in “Single-dose regimen” section. The resulting plasma samples were used to determine the steady-state plasma concentration of TRQI and TRQC. A crossover study was again carried out in both groups, as described in “Single-dose regimen” section, after a 7-day washing period.
as §3

[4] = both sexes, iv, single i.v. dose of TRQI 0.5 mL/kg
[5] = both sexes, single oral dose of TRQC 0.09 g/kg
[6] = n = 3, high QC: nominal 200 ng/mL baicalin, 1000 ursodeoxycholic acid, 100 chenodeoxycholic acid and chlorogenic acid
[7] = n = 3, low QC: nominal 4 ng/mL baicalin, 20 ursodeoxycholic acid, 2 chenodeoxycholic acid and chlorogenic acid
[8] = n = 3, middle QC: nominal 20 ng/mL baicalin, 100 ursodeoxycholic acid, 10 chenodeoxycholic acid and chlorogenic acid
[9] = both sexes, iv, TRQI 0.5 mL/kg once per day for 7 days
[10] = both sexes, po, TRQC 0.09 g/kg once per day for 7 days

Compound `O=C(/C=C/c1ccc(O)c(O)c1)O[C@@H]1C[C@](O)(C(=O)O)C[C@@H](O)[C@H]1O` [Chlorogenic acid, chlorogenic acid] has an AUC(0-t) ([1]; both sexes, iv, 0.5 mL/kg, single TRQI 0.5 mL/kg, Mean) of 20.3 ng·h/mL, a Cmax [1, 4] of 26.6 ng/mL and a Tmax [1, 4] of 0.13 h. It also gave a half-life [1, 4] of 0.89 h, an AUC(0-t) ([1]; both sexes, po, 0.09 g/kg, single TRQCs 0.09 g/kg, Mean) of 29.1 ng·h/mL and a Cmax [1, 5] of 8.58 ng/mL. It also gave a Tmax [1, 5] of 3.75 h, a half-life [1, 5] of 1.45 h and an AUC(0-t) ([1]; female, iv, 0.5 mL/kg, single TRQI 0.5 mL/kg, beagle No 4) of 11.2 ng·h/mL. The AUC(0-t) ([1]; female, iv, 0.5 mL/kg, single TRQI 0.5 mL/kg, beagle No 5) was 15.2 ng·h/mL, the AUC(0-t) ([1]; female, iv, 0.5 mL/kg, single TRQI 0.5 mL/kg, beagle No 6) was 24.8 ng·h/mL and the AUC(0-t) ([1]; female, po, 0.09 g/kg, single TRQCs 0.09 g/kg, beagle No 4) was 13.9 ng·h/mL. It also gave an AUC(0-t) ([1]; male, iv, 0.5 mL/kg, single TRQI 0.5 mL/kg, beagle No 1) of 29.6 ng·h/mL, an AUC(0-t) ([1]; male, iv, 0.5 mL/kg, single TRQI 0.5 mL/kg, beagle No 2) of 17.8 ng·h/mL and an AUC(0-t) ([1]; male, po, 0.09 g/kg, single TRQCs 0.09 g/kg, beagle No 1) of 21.1 ng·h/mL. The AUC(0-t) ([1]; male, po, 0.09 g/kg, single TRQCs 0.09 g/kg, beagle No 2) was 48.1 ng·h/mL, the AUC(0-t) ([1]; male, po, 0.09 g/kg, single TRQCs 0.09 g/kg, beagle No 3) was 33.2 ng·h/mL and the “Freeze-thaw stability (3 cycles) Mean ± S.D. concentration” value (“Freeze-thaw stability” below) [2, 6] was 95.65 ± 3.72 ng/mL. The “Long-term stability (30 days at – 80 °C) Mean ± S.D. concentration” value (shortened to “Long-term stability”) [2, 6] was 87.31 ± 4.62 ng/mL, the “Short-term stability (6 h at room temperature) Mean ± S.D concentration” value (shortened to “Short-term stability”) [2, 6] was 88.28 ± 2.72 ng/mL and the “Freeze-thaw stability” value [2, 7] was 2.07 ± 0.17 ng/mL. The “Long-term stability” value [2, 7] was 1.73 ± 0.05 ng/mL, the “Short-term stability” value [2, 7] was 1.98 ± 0.16 ng/mL and the “Freeze-thaw stability” value [2, 8] was 10.03 ± 0.84 ng/mL. For the same compound, the “Long-term stability” value [2, 8] was 8.95 ± 0.42 ng/mL, the “Short-term stability” value [2, 8] was 8.97 ± 0.70 ng/mL and the AUC(0-inf) ([3]; both sexes, iv, 0.5 mL/kg, TRQI 0.5 mL/kg for 7 days, Mean) was 15.9 ng·h/mL. It also gave an AUC(0-t) ([3]; both sexes, iv, 0.5 mL/kg, TRQI 0.5 mL/kg for 7 days, Mean, read-out: AUC0–24 h) of 15.4 ng·h/mL, a Cmax at 7 days [3, 9] of 20.3 ng/mL and a Tmax at 7 days [3, 9] of 0.18 h. For the same compound, the half-life at 7 days [3, 9] was 0.88 h, the AUC(0-inf) ([3]; both sexes, po, 0.09 g/kg, TRQC 0.09 g/kg for 7 days, Mean) was 12.3 ng·h/mL and the AUC(0-t) ([3]; both sexes, po, 0.09 g/kg, TRQC 0.09 g/kg for 7 days, Mean, read-out: AUC0–24 h) was 11.7 ng·h/mL. It also gave a Cmax at 7 days [3, 10] of 3.9 ng/mL, a Tmax at 7 days [3, 10] of 3.17 h and a half-life at 7 days [3, 10] of 1.56 h. It also gave an AUC(0-inf) ([3]; female, iv, 0.5 mL/kg, TRQI 0.5 mL/kg for 7 days, beagle No. 4) of 19.3 ng·h/mL, an AUC(0-t) ([3]; female, iv, 0.5 mL/kg, TRQI 0.5 mL/kg for 7 days, beagle No. 4, read-out: AUC0–24 h) of 19.1 ng·h/mL and an AUC(0-inf) ([3]; female, iv, 0.5 mL/kg, TRQI 0.5 mL/kg for 7 days, beagle No. 5) of 24.4 ng·h/mL. For the same compound, the AUC(0-t) ([3]; female, iv, 0.5 mL/kg, TRQI 0.5 mL/kg for 7 days, beagle No. 5, read-out: AUC0–24 h) was 23.9 ng·h/mL, the AUC(0-inf) ([3]; female, iv, 0.5 mL/kg, TRQI 0.5 mL/kg for 7 days, beagle No. 6) was 30.7 ng·h/mL and the AUC(0-t) ([3]; female, iv, 0.5 mL/kg, TRQI 0.5 mL/kg for 7 days, beagle No. 6, read-out: AUC0–24 h) was 30 ng·h/mL. The AUC(0-inf) ([3]; female, po, 0.09 g/kg, TRQC 0.09 g/kg for 7 days, beagle No. 4) was 23.2 ng·h/mL, the AUC(0-t) ([3]; female, po, 0.09 g/kg, TRQC 0.09 g/kg for 7 days, beagle No. 4, read-out: AUC0–24 h) was 22.6 ng·h/mL and the AUC(0-inf) ([3]; female, po, 0.09 g/kg, TRQC 0.09 g/kg for 7 days, beagle No. 5) was 13.3 ng·h/mL. For the same compound, the AUC(0-t) ([3]; female, po, 0.09 g/kg, TRQC 0.09 g/kg for 7 days, beagle No. 5, read-out: AUC0–24 h) was 11.4 ng·h/mL, the AUC(0-inf) ([3]; female, po, 0.09 g/kg, TRQC 0.09 g/kg for 7 days, beagle No. 6) was 27 ng·h/mL and the AUC(0-t) ([3]; female, po, 0.09 g/kg, TRQC 0.09 g/kg for 7 days, beagle No. 6, read-out: AUC0–24 h) was 26.9 ng·h/mL. It also gave an AUC(0-inf) ([3]; male, iv, 0.5 mL/kg, TRQI 0.5 mL/kg for 7 days, beagle No. 1) of 6.07 ng·h/mL, an AUC(0-t) ([3]; male, iv, 0.5 mL/kg, TRQI 0.5 mL/kg for 7 days, beagle No. 1, read-out: AUC0–24 h) of 6.07 ng·h/mL and an AUC(0-inf) ([3]; male, iv, 0.5 mL/kg, TRQI 0.5 mL/kg for 7 days, beagle No. 2) of 5.59 ng·h/mL. It also gave an AUC(0-t) ([3]; male, iv, 0.5 mL/kg, TRQI 0.5 mL/kg for 7 days, beagle No. 2, read-out: AUC0–24 h) of 5.24 ng·h/mL, an AUC(0-inf) ([3]; male, iv, 0.5 mL/kg, TRQI 0.5 mL/kg for 7 days, beagle No. 3) of 9.2 ng·h/mL and an AUC(0-t) ([3]; male, iv, 0.5 mL/kg, TRQI 0.5 mL/kg for 7 days, beagle No. 3, read-out: AUC0–24 h) of 8.21 ng·h/mL. It also gave an AUC(0-inf) ([3]; male, po, 0.09 g/kg, TRQC 0.09 g/kg for 7 days, beagle No. 1) of 1.31 ng·h/mL, an AUC(0-t) ([3]; male, po, 0.09 g/kg, TRQC 0.09 g/kg for 7 days, beagle No. 1, read-out: AUC0–24 h) of 0.72 ng·h/mL and an AUC(0-inf) ([3]; male, po, 0.09 g/kg, TRQC 0.09 g/kg for 7 days, beagle No. 2) of 3.2 ng·h/mL. For the same compound, the AUC(0-t) ([3]; male, po, 0.09 g/kg, TRQC 0.09 g/kg for 7 days, beagle No. 2, read-out: AUC0–24 h) was 3.19 ng·h/mL, the AUC(0-inf) ([3]; male, po, 0.09 g/kg, TRQC 0.09 g/kg for 7 days, beagle No. 3) was 5.62 ng·h/mL and the AUC(0-t) ([3]; male, po, 0.09 g/kg, TRQC 0.09 g/kg for 7 days, beagle No. 3, read-out: AUC0–24 h) was 5.21 ng·h/mL.
